Assay results reported in patent US20260042755A1, “GPR6 INVERSE AGONISTS” (MapLight Therapeutics, Inc., priority 2022, published 2026).

Key:
[1] = molecular target: T1, GPR6 (Homo sapiens, UniProt P46095); assay: GPR6 antagonist functional cAMP assay (LANCE Ultra cAMP TR-FRET, CHO cells stably expressing GPR6); format: cell-based
T1 construct: expressed in transfected cells; host or cells: CHO cells
Procedure, shortened: (§1)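 Suspended cells were plated at 10,000 per well in Krebs-Ringer bicarbonate buffer containing 0.1% BSA and 150 μM Ro 20-1724, then treated with compounds for 45 min at 37 °C. Intracellular cAMP was then quantified by TR-FRET immunoassay.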

[2] = molecular target: T2, GPR3 (Homo sapiens, UniProt P46089); assay: GPR3 antagonist functional cAMP assay (LANCE Ultra cAMP TR-FRET, CHO cells stably expressing GPR3); format: cell-based
T2 construct: expressed in transfected cells; host or cells: CHO cells
Procedure, shortened: as §1

[3] = CHO cells stably expressing GPR6, cAMP assay (Example 24)
[4] = CHO cells stably expressing GPR3, cAMP assay (Example 24)
[5] = procedure as described in Example 24
[6] = CHO cells stably expressing GPR6, cAMP assay
[7] = CHO cells stably expressing GPR3, cAMP assay

T1 sequence (P46095 whole entry): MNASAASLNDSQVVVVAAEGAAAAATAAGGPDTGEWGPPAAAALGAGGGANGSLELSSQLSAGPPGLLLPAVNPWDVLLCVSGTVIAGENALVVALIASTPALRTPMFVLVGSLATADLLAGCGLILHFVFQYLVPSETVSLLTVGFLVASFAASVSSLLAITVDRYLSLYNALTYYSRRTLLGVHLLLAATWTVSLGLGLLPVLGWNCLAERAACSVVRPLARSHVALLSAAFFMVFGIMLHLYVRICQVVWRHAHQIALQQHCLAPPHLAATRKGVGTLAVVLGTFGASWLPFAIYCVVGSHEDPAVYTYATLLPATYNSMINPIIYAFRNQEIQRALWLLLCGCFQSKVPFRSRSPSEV
T2 sequence (P46089 whole entry, species assumed): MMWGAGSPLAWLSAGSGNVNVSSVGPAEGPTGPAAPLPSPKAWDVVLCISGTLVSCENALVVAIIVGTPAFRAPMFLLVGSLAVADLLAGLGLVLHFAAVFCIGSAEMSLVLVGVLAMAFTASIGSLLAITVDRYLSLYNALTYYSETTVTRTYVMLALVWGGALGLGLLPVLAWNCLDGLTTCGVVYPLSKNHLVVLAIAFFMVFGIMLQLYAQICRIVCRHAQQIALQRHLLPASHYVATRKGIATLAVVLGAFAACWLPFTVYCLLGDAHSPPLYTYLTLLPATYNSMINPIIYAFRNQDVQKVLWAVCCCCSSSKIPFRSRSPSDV

| Compound | IC50 ([1]; procedure of Example 24) [µM] | IC50 ([2]; procedure of Example 24) [µM] | IC50 [1, 3] [µM] | IC50 [2, 4] [µM] | also measured |
| --- | --- | --- | --- | --- | --- |
| CC(C)(O)C(=O)c1cc2nc(N3CCN(Cc4ccc(F)cc4F)CC3)c(-c3cnn(C4CC4)c3)nc2cn1 [Compound 619, 1-[3-(1-cyclopropyl-4-pyrazolyl)-2-{4-[(2,4-difluorophenyl)methyl]-1-piperazinyl}-1,4,6-triaza-7-naphthyl]-2-hydroxy-2-methyl-1-propanone] | 0.1 to 1 | 1 to 30 | – | – | – |
| CC(C)OC(=O)N1CCc2nc(N3CCC(Oc4ccc(F)cc4F)CC3)c(-c3cnn(C4CCCCO4)c3)nc2C1 (centres unmarked) [Compound 156, propan-2-yl 2-[4-(2,4-difluorophenoxy)piperidin-1-yl]-3-[1-(oxan-2-yl)-1H-pyrazol-4-yl]-5H,6H,7H,8H-pyrido[3,4-b]pyrazine-6-carboxylate] | – | – | 1 to 30 | 1 to 30 | – |
| COC[C@H]1CN(Cc2ccc(F)cc2F)CCN1c1nc2c(nc1-c1cnn(C)c1)CN(C(C)=O)CC2 (single isomer, unassigned) [Compound 249] | – | – | 1 to 30 | 1 to 30 | – |
| CC(=O)N1CCc2nc(N3CCC(Oc4ccc(F)cc4F)CC3)c(-c3ncccn3)nc2C1 [Compound 37, 1-{2-[4-(2,4-difluorophenoxy)piperidin-1-yl]-3-(pyrimidin-2-yl)-5H,6H,7H,8H-pyrido[3,4-b]pyrazin-6-yl}ethan-1-one] | – | – | – | – | IC50 [1, 5]: 1 to 30 µM; IC50 [2, 5]: 0.1 to 1 µM |
| COc1ccc(OC2CCN(c3nc4c(nc3-c3cnn(C)c3)CN(C(C)=O)CC4)CC2)cn1 [Compound 498, 1-{2-[4-(6-methoxy-3-pyridyloxy)-1-piperidyl]-3-(1-methyl-4-pyrazolyl)-5,6,7,8-tetrahydro-1,4,6-triaza-6-naphthyl}-1-ethanone] | – | – | – | – | IC50 [1, 6]: 1 to 30 µM; IC50 [2, 7]: 1 to 30 µM |
| O=C(C1CNC1)N1CCc2nc(N3CCC(Oc4ccc(F)cc4F)CC3)c(-c3cn[nH]c3)nc2C1 [Compound 153, 1-[6-(azetidine-3-carbonyl)-3-(1H-pyrazol-4-yl)-5H,6H,7H,8H-pyrido[3,4-b]pyrazin-2-yl]-4-(2,4-difluorophenoxy)piperidine] | – | – | 1 to 30 | 1 to 30 | – |
| Cn1cc(-c2nc3cncc(C#N)c3nc2N2CCC(Oc3ccc(F)cc3F)CC2)cn1 [Compound 436, 2-[4-(2,4-difluorophenoxy)piperidin-1-yl]-3-(1-methyl-1H-pyrazol-4-yl)pyrido[3,4-b]pyrazine-8-carbonitrile] | – | – | 1 to 30 | 1 to 30 | – |
| CC(C)(O)[C@@](C)(O)c1cc2nc(N3CCN(Cc4ccccc4F)CC3)c(-c3cnn(C4CC4)c3)nc2cn1 (single isomer, unassigned) [Compound 747] | 0.1 to 1 | 1 to 30 | – | – | – |
| COc1ccc(C(=O)N2CCN(c3nc4c(nc3-c3cnn(C)c3)CN(C(C)=O)CC4)CC2)cc1 [Compound 283, 1-{2-[4-(4-methoxybenzoyl)piperazin-1-yl]-3-(1-methyl-1H-pyrazol-4-yl)-5H,6H,7H,8H-pyrido[3,4-b]pyrazin-6-yl}ethan-1-one] | 1 to 30 | 1 to 30 | – | – | – |
| CC(=O)N1CCc2nc(N3CCC(Oc4ccc(F)cc4F)CC3)c(C3CCC(=O)CC3)nc2C1 [Compound 404, 4-(6-acetyl-2-(4-(2,4-difluorophenoxy)piperidin-1-yl)-5,6,7,8-tetrahydropyrido[3,4-b]pyrazin-3-yl)cyclohexan-1-one] | – | – | 1 to 30 | 1 to 30 | – |
| O=C(N1CCOCC1)N1CCc2nc(N3CCC(Oc4ccc(F)cc4F)CC3)c(-c3cn[nH]c3)nc2C1 [Compound 120, 4-{2-[4-(2,4-difluorophenoxy)piperidin-1-yl]-3-(1H-pyrazol-4-yl)-5H,6H,7H,8H-pyrido[3,4-b]pyrazine-6-carbonyl}morpholine] | – | – | 0.1 to 1 | 1 to 30 | – |
| COC[C@H]1CN(Cc2ccc(F)cc2F)CCN1c1nc2ccncc2nc1-c1cnn(C)c1 (single isomer, unassigned) [Compound 238] | – | – | 1 to 30 | 1 to 30 | – |
| CC(=O)N1CCc2nc(N3CCC(C(=O)c4ccc(F)cc4F)CC3)c(-c3ccc(F)c(N)n3)nc2C1 [Compound 638, 1-{3-(6-amino-5-fluoro-2-pyridyl)-2-[4-(2,4-difluorobenzoyl)-1-piperidyl]-5,6,7,8-tetrahydro-1,4,6-triaza-6-naphthyl}-1-ethanone] | < 0.1 | 1 to 30 | – | – | – |
| COC1CN(c2cc3nc(N4CCC(Oc5ccc(F)cc5F)CC4)c(-c4cnn(C)c4)nc3cn2)C1 [Compound 450, 4-(2,4-difluorophenoxy)-1-[7-(3-methoxyazetidin-1-yl)-3-(1-methyl-1H-pyrazol-4-yl)pyrido[3,4-b]pyrazin-2-yl]piperidine] | – | – | 1 to 30 | 1 to 30 | – |
| CCn1cc(-c2nc3cnc(NC(C)=O)cc3nc2N2CCC(Oc3ccc(F)cc3F)CC2)cn1 [Compound 367, N-{2-[4-(2,4-difluorophenoxy)piperidin-1-yl]-3-(1-ethyl-1H-pyrazol-4-yl)pyrido[3,4-b]pyrazin-7-yl}acetamide] | 1 to 30 | 1 to 30 | – | – | – |
| CC(=O)N1CCc2nc(N3CCN(Cc4ccc(F)cc4C#N)CC3)c(-c3cnn(C)c3)nc2C1 [Compound 355, 2-({4-[6-acetyl-3-(1-methyl-1H-pyrazol-4-yl)-5H,6H,7H,8H-pyrido[3,4-b]pyrazin-2-yl]piperazin-1-yl}methyl)-5-fluorobenzonitrile] | 1 to 30 | 1 to 30 | – | – | – |

| Compound | IC50 ([1]; procedure of Example 24) [µM] | IC50 ([2]; procedure of Example 24) [µM] | IC50 [1, 3] [µM] | IC50 [2, 4] [µM] | also measured |
| --- | --- | --- | --- | --- | --- |
| CC(C)(O)C(O)c1cc2nc(-c3cnn(CF)c3)c(N3CCC(=Cc4ccc(F)cc4F)CC3)nc2cn1 (single isomer, unassigned) [Compound 771] | 0.1 to 1 | 0.1 to 1 | – | – | – |
| CC(=O)N1CCc2nc(N3CCN(Cc4ccc(=O)n(C)c4)CC3)c(-c3cnn(C)c3)nc2C1 [Compound 535, 5-({4-[6-acetyl-3-(1-methyl-4-pyrazolyl)-5,6,7,8-tetrahydro-1,4,6-triaza-2-naphthyl]-1-piperazinyl}methyl)-1-methyl-2(1H)-pyridinone] | – | – | – | – | IC50 [1, 6]: ≥ 30 µM; IC50 [2, 7]: ≥ 30 µM |
| Cn1cc(-c2nc3cnc([C@](C)(O)CO)cc3nc2N2CCC(Oc3ccc(F)cc3F)CC2)cn1 (single isomer, unassigned) [Compound 565] | – | – | – | – | IC50 [1, 6]: 1 to 30 µM; IC50 [2, 7]: 1 to 30 µM |
| CC(C)(O)C(C)(O)c1cc2nc(-c3cnn(C4CC4)c3)c(N3CCN(Cc4ccc(F)cc4F)CC3)nc2cn1 (centres unmarked) [Compound 653, 2-[2-(1-cyclopropyl-4-pyrazolyl)-3-{4-[(2,4-difluorophenyl)methyl]-1-piperazinyl}-1,4,6-triaza-7-naphthyl]-3-methyl-2,3-butanediol] | 0.1 to 1 | 1 to 30 | – | – | – |
| CC(=O)N1CCc2nc(N3CCC(Oc4ccc(Cl)cc4Cl)CC3)c(-c3cnn(C)c3)nc2C1 [Compound 429, 1-{2-[4-(2,4-dichlorophenoxy)piperidin-1-yl]-3-(1-methyl-1H-pyrazol-4-yl)-5H,6H,7H,8H-pyrido[3,4-b]pyrazin-6-yl}ethan-1-one] | – | – | 0.1 to 1 | 1 to 30 | – |
| Cn1cc(-c2nc3c(nc2N2CCC(Oc4ccc(F)cc4F)CC2)CC2COCC(=O)N2C3)cn1 (centres unmarked) [Compound 488, 6-[4-(2,4-difluorophenoxy)piperidin-1-yl]-5-(1-methyl-1H-pyrazol-4-yl)-12-oxa-1,4,7-triazatricyclo[8.4.0.0^3,8]tet radeca-3(8),4,6-trien-14-one] | – | – | 0.1 to 1 | 1 to 30 | – |
| CC(=O)N1CCc2nc(N3CCC(Oc4ccc(F)cc4F)CC3)c(-c3ccnc(Cl)n3)nc2C1 [Compound 466, 1-[3-(2-chloropyrimidin-4-yl)-2-[4-(2,4-difluorophenoxy)piperidin-1-yl]-5H,6H,7H,8H-pyrido[3,4-b]pyrazin-6-yl]ethan-1-one] | – | – | 1 to 30 | 1 to 30 | – |
| COC[C@@H](O)c1cc2nc(-c3cnn(C)c3)c(N3CCC(Oc4ccc(F)cc4F)CC3)nc2cn1 (single isomer, unassigned) [Compound 680] | < 0.1 | 0.1 to 1 | – | – | – |
| CCn1cc(-c2nc3cc(C(C)(O)C(C)(C)O)ncc3nc2N2CCC(Oc3ccc(F)cc3F)CC2)cn1 (single isomer, unassigned) [Compound 741] | 0.1 to 1 | 1 to 30 | – | – | – |
| Cn1cc(-c2nc3cc([C@@](C)(O)C(C)(C)O)ncc3nc2N2CCN(Cc3ccc(F)cc3F)CC2)cn1 (single isomer, unassigned) [Compound 772] | 0.1 to 1 | 0.1 to 1 | – | – | – |
| CC(=O)N1CCc2nc(N3CCC(Cc4cc(F)ccc4F)CC3)c(-c3ccc(F)c(N)n3)nc2C1 [Compound 702, 1-[3-(6-amino-5-fluoro-2-pyridyl)-2-{4-[(2,5-difluorophenyl)methyl]-1-piperidyl}-5,6,7,8-tetrahydro-1,4,6-triaza-6-naphthyl]-1-ethanone] | < 0.1 | 0.1 to 1 | – | – | – |
| CC(=O)N1CCc2nc(N3CCN(Cc4ccc(Cl)cc4Cl)CC3)c(-c3ccc(F)c(N)n3)nc2C1 [Compound 637, 1-[3-(6-amino-5-fluoro-2-pyridyl)-2-{4-[(2,4-dichlorophenyl)methyl]-1-piperazinyl}-5,6,7,8-tetrahydro-1,4,6-triaza-6-naphthyl]-1-ethanone] | 0.1 to 1 | 1 to 30 | – | – | – |
| COc1cc(F)c(CN2CCN(c3nc4c(nc3-c3cnn(C)c3)CN(C(C)=O)CC4)CC2)cc1Cl [Compound 361, 1-(2-{4-[(5-chloro-2-fluoro-4-methoxyphenyl)methyl]piperazin-1-yl}-3-(1-methyl-1H-pyrazol-4-yl)-5H,6H,7H,8H-pyrido[3,4-b]pyrazin-6-yl)ethan-1-one] | 1 to 30 | 1 to 30 | – | – | – |
| CC(C)(O)C(O)c1cc2nc(-c3cnn(C4CC4)c3)c(N3CCC(Oc4ccc(F)cc4F)CC3)nc2cn1 (single isomer, unassigned) [Compound 591] | – | – | – | – | IC50 [1, 6]: < 0.1 µM; IC50 [2, 7]: 1 to 30 µM |
| CNc1cc2nc(N3CCC(Oc4ccc(F)cc4F)CC3)c(-c3cnn(C)c3)nc2cn1 [Compound 433, 2-(4-(2,4-difluorophenoxy)piperidin-1-yl)-N-methyl-3-(1-methyl-1H-pyrazol-4-yl)pyrido[3,4-b]pyrazin-7-amine] | – | – | 1 to 30 | 1 to 30 | – |
